In brackets after ≈: the same amount, converted by molar mass. Each block holds one molecule with its values, some of them ahead of it.
How the values were obtained:
Acetylcholinesterase = Acetylcholinesterase (Electrophorus electricus, UniProt O42275); assay: Inhibition of electric eel AChE using acetylthiocholine iodide as substrate preincubated with substrate for 15 mins followed by protein addition measured after 5 mins by Ellaman's method
KB = assay: Antiproliferative activity against human KB cells after 4 hrs by MTT assay; format: functional, cell-based
Staphylococcus aureus = assay: Antibacterial activity against Staphylococcus aureus ATCC 6538 after 16 hrs by broth dilution method; format: functional; details: ATCC 6538, 16 h
Pseudomonas aeruginosa = assay: Antibacterial activity against Pseudomonas aeruginosa ATCC 13384 after 16 hrs by broth dilution method; format: functional; details: ATCC 13384, 16 h
U2OS = assay: Antiproliferative activity against human U2OS cells after 48 hrs by MTT assay; format: functional, cell-based
MG-63 = assay: Antiproliferative activity against human MG63 cells after 48 hrs by MTT assay; format: functional, cell-based; details: MG-63, 48 h
[1] = Inhibition of Saccharomyces cerevisiae alpha-glucosidase using PNP-G as substarte
[2] = Antioxidant activity assessed as DPPH free radical scavenging activity; format: functional
MCF7 = assay: Antiproliferative activity against human MCF7 cells after 4 hrs by MTT assay; format: functional, cell-based; details: MCF7, 4 h
[3] = molecular target: T1, Amine oxidase [flavin-containing] B (Homo sapiens, UniProt P27338); assay: Inhibition of human MAO-B using p-tyramine as substrate by amplex red-based fluorescence assay
T1 sequence (P27338 whole entry): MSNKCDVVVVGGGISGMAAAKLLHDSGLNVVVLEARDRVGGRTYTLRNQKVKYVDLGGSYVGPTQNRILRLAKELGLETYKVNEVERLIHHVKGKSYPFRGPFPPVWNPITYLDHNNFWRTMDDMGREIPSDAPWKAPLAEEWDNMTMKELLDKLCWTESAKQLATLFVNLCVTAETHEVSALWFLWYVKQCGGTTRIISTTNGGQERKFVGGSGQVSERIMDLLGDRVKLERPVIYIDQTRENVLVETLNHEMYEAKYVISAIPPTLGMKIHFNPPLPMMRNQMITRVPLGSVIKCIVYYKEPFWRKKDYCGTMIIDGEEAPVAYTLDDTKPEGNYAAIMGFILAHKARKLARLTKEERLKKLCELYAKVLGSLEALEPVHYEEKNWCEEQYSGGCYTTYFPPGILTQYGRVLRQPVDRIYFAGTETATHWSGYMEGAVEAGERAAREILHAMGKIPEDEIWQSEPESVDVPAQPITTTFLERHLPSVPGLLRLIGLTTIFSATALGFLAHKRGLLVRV

Beta-secretase 1 = Beta-secretase 1 (Homo sapiens, UniProt P56817); assay: Inhibition of recombinant human BACE-1 using rhodamine labelled EVNLDAEFK as substrate after 90 mins by FRET assay
Entamoeba histolytica = assay: Antiamoebic activity against trophozoite stage of Entamoeba histolytica HM-1:IMSS incubated for 24 hrs measured after 48 hrs by dilution micromethod; format: functional
Candida tropicalis = assay: Antifungal activity against Candida tropicalis after 24 hrs by Neubauer chamber method; format: functional

Acetylcholinesterase, sequence (O42275 whole entry): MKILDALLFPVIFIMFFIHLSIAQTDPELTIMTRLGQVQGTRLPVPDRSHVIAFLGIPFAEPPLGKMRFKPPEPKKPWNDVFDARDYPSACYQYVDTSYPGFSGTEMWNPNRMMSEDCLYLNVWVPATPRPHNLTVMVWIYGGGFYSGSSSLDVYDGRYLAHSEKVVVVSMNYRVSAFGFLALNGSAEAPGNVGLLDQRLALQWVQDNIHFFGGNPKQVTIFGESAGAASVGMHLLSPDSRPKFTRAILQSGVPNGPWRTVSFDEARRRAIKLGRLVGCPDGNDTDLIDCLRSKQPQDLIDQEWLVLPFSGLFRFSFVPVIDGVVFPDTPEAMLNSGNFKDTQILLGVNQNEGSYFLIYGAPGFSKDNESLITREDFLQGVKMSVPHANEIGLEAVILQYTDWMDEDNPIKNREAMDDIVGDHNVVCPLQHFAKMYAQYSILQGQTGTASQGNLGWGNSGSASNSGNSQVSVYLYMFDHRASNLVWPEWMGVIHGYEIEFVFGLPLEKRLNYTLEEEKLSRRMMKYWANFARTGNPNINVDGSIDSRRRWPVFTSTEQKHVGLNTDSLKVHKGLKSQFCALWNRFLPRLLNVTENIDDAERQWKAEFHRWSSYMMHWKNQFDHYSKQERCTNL
Beta-secretase 1, sequence (P56817 whole entry): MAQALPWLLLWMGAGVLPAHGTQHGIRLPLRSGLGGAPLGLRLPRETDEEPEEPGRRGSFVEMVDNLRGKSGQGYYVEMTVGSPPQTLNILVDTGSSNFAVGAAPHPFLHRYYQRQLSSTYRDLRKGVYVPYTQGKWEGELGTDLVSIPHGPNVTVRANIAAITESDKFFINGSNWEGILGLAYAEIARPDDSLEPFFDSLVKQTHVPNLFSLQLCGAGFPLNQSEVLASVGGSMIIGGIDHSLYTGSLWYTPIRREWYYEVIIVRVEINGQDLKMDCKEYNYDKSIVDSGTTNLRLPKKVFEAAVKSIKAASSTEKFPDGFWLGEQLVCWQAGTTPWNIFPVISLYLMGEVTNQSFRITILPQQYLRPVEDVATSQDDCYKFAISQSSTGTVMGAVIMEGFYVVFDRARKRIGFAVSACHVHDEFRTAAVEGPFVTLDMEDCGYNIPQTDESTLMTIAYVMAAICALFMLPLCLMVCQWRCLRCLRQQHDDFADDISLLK

Structure (SMILES): O=C1/C(=C/C2=COC3C=CC(Br)=CC3C2=O)COc2ccccc21 (stereo unspecified)
IC50 (Acetylcholinesterase): 0.96 µM

IC50 (KB): 44.1 µg/mL (≈ 145 µM)
Structure (SMILES): COc1ccc2c(=O)c(/C=C3\SC(=O)NC3=O)coc2c1

MIC (Staphylococcus aureus): 80 µg/mL (≈ 203 µM)
MIC (Pseudomonas aeruginosa): 20 µg/mL (≈ 50.8 µM)
Structure (SMILES): CC(C)(C)n1nnnc1C(Nc1ccccc1)c1coc2cc(F)ccc2c1=O (stereo unspecified)

IC50 (U2OS): 63 µM
Structure (SMILES): O=c1cc(N2CCOCC2)oc2c(-c3ccccc3)cccc12 [LY-294002]
IC50 (MG-63): 55.2 µM

IC50 [1]: 28 µM
EC50 [2]: 13 µM
Structure (SMILES): COc1ccc2c(c1)OC/C(=C\c1ccc(O)c(O)c1)C2=O

IC50 (MCF7): 32.8 µg/mL (≈ 103 µM)
Structure (SMILES): COc1ccc2c(=O)c(/C=C3\SC(=O)N(C)C3=O)coc2c1

IC50 [3]: 0.0423 µM
Structure (SMILES): Cc1ccc(N/C=C2\C(=O)Oc3ccccc3C2=O)cc1

IC50 [1]: 16 µM
EC50 [2]: 17 µM
Structure (SMILES): O=c1c(/C=C/c2ccc(O)c(O)c2)coc2ccc(O)cc12

IC50 (Beta-secretase 1): 6.84 µM
Structure (SMILES): CCCCCC(=O)Oc1ccc2c(=O)c(C3C(OC(=O)CC)=C(C)NC(C)=C3OC(=O)CC)coc2c1

Structure (SMILES): NC1=C(/C=C2\COc3ccccc3C2=O)C(=O)C2C=CC=CC2O1 (stereo unspecified)
IC50 (Acetylcholinesterase): 0.27 µM

MIC (Staphylococcus aureus): 40 µg/mL (≈ 79.8 µM)
MIC (Pseudomonas aeruginosa): 160 µg/mL (≈ 319 µM)
IC50 (Entamoeba histolytica): 61.7 µg/mL (≈ 123 µM)
Structure (SMILES): CC(C)(C)n1nnnc1C(Nc1ccccc1I)c1coc2ccccc2c1=O (stereo unspecified)

MIC (Candida tropicalis): 6250 µg/mL (≈ 12300 µM)
MIC (Staphylococcus aureus): 160 µg/mL (≈ 314 µM)
MIC (Pseudomonas aeruginosa): 80 µg/mL (≈ 157 µM)
Structure (SMILES): COc1cc(NC(c2coc3cc(F)ccc3c2=O)c2nnnn2C2CCCCC2)cc(OC)c1OC (stereo unspecified)

IC50 (Entamoeba histolytica): 61.7 µg/mL (≈ 144 µM)
Structure (SMILES): CC(C)(C)n1nnnc1C(Nc1ccc(Cl)cc1)c1coc2cc(F)ccc2c1=O (stereo unspecified)
